According to patent US10047036B2, “Method for the synthesis of hydroxy-triglycerides and uses thereof for the prevention and treatment of diseases” (UNIVERSITAT DE LES ILLES BALEARS, priority 2014, dated 2018):

Columns and labels:
[1] = target: T1, Glycogen Branching Enzyme 1 (GBE1) wild type (Homo sapiens, UniProt Q04446); assay: activity of purified enzyme GBE1 in the presence of PC membranes; assay type: biochemical; conditions: PC membranes with TGM 20 mol %; non-mutated enzyme = 100% (0.76 nmol/min · ng protein)
T1 sequence (Q04446 1-702): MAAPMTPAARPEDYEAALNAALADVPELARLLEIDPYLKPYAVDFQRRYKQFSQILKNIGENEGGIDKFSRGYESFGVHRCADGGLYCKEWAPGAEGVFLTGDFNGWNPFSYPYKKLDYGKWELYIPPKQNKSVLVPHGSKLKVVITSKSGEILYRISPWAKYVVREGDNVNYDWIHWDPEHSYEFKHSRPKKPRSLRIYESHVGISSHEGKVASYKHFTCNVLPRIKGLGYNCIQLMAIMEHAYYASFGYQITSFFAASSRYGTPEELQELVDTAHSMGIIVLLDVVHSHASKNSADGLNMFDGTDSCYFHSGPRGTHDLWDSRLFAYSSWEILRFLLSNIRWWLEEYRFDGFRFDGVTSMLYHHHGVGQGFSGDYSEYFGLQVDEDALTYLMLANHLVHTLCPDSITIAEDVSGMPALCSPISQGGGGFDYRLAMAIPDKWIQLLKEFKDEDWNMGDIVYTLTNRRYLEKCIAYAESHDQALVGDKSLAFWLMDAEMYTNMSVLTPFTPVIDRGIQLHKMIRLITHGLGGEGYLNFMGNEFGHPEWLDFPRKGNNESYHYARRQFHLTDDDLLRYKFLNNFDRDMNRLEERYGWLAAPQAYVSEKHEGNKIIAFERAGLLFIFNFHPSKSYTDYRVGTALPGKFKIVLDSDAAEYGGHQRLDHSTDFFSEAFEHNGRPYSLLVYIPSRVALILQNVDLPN
Excerpt: It has been possible to observe that the molecules of the present invention are capable of regulating the activity of the Glycogen Branching Enzyme 1 (GBE1) and its joining to membranes (Table 9). Alterations in this enzyme give rise to a neurodegenerative process known as APBD (Kakhlon et al., 2013). It has been described that a modification of tyrosine in position 329 of this enzyme (Y329S) causes a reduction in the activity of GBE1. This gives rise to a lower branching of glycogen, which precipitates forming […] which interfere with cell activity (Kakhlon et al., 2013). This gives rise to problems in the function of certain organs, to motor problems and, in some cases, to cognitive decline. We have been able to verify that the hydroxy-triglycerides of the present invention are capable of regulating the joining of native GBE1 (wild type, wt) and with the variant Y329S to membranes and to increase the activity of the form Y329S, which is very low in normal conditions (Table 9). For this reason, the molecules of the present invention are effective for the prevention and treatment of the polyglucosan bodies disease, APBD.

[2] = test system: Drosophila melanogaster flies with human Alzheimer's genes (F1); assay: survival of Drosophila melanogaster with Alzheimer's disease; assay type: in vivo; conditions: 100 μM in the food
Excerpt: To investigate the effect of TGMs on the cognitive parameters and aging, another model of Alzheimer's disease in Drosophila melanogaster flies with genetic alterations corresponding to human Alzheimer's was used. The flies used were the first generation (F1) from the crossing of UAS-Aβ human-Tau 2N4R (stock 33771) flies with elav-GAL4^c155 (stock 8760) flies. This model which over-expresses the two proteins typical of Alzheimer's disease is complementary to the model described above and very convenient, as these animals have a life of approximately 1 month and it is possible to add the compounds to the food of the larvae to see the preventative effect thereof throughout their entire life. Also, it allows the effect on aging to be seen and on the life expectancy of these animals (survival over time).
In this sense, the flies with human Alzheimer's (F1) present a greater cognitive decline in comparison to the “Oregon” fly strain, which are the healthy controls. To evaluate the effect of the hydroxy-triglycerides of the invention, each one of the TGMs (100 μM) was added to the food consumed by these animals. It was possible to observe a positive effect of same in the geotaxis test of climbing (FIG. 7B and Table 11). In this test, the behavioural motor activity was investigated in 25 flies treated with vehicle or one of the TGMs. In this study, the flies were introduced in a glass cylinder with an opening closed with a sponge so air could enter. The flies were taken to the ground (bottom) of the pipe by giving it a sharp blow on a table and their behaviour was timed during 20 seconds. Once this time was over, the number of flies which had passed (crossed) a mark at 15 cm from the bottom was counted (geotaxis test). Usually, more than 90% of healthy young flies passed the line within 20 seconds. However, with aging or with Alzheimer's disease, the behavioural motor activity (percentage of flies which crossed the line) declined, compared to normal flies. In this context, the treatments with the hydroxy-triglycerides of the present invention avoided this cognitive decline associated to Alzheimer's, making the cognitive capacity of the diseased flies similar to that of the healthy flies. […] This positive effect on the cognitive parameters in flies was also shown by other TGMs (Table 11). In fact, in the control group with Alzheimer, no fly crossed the line as of 23 days of age. In this sense, the different hydroxy-triglycerides induced marked increases in the geotaxis test values, with increases in the cognitive values which reached up to 36 days, 50% more in the life of the flies with Alzheimer's (Table 11).

[3] = test system: MRC5 (non-tumour) human fibroblasts; assay: growth inhibition of normal non-tumour cells, 72 h incubation; assay type: cell-based; conditions: 72 hours of incubation
Protocol: On the one hand, human cells of different types of cancer were used. The cells were incubated at 37° C. and 5% of CO2 in air, in culture medium RPMI1640 or DMEM with bovine foetal serum (10%) and other supplements and in the presence or absence of the triglycerides of the present invention at different concentrations during 72 hours. It was possible to observe that the hydroxy-triglycerides of the invention have a high efficacy against the growth of human tumour cells, but not against the growth of normal non-tumour cells (human fibroblasts, MRC5).

[4] = test system: cholesterol in plasma; assay: plasma cholesterol in SHR rats; assay type: in vivo; conditions: p.o.; for Chol, levels of total cholesterol in plasma: 6 days, 400 mg/kg
Excerpt: Metabolic and cardiovascular pathologies are closely related. The overfeeding which characterises our society not only gives rise to problems of obesity and excess weight. It is also linked to the appearance of diabetes, dyslipidaemia, hypertension, strokes, arteriosclerosis, ictus, etc. All of these pathologies increase the risk of premature death and can even cause death. In this sense, certain natural oils show a certain efficacy against this type of pathologies, but their power is limited. In contrast, the molecules of the invention have an important effect against the development of this type of pathologies. To be able to study the effects of the compounds of the invention for the prevention and treatment of metabolic and cardiovascular pathologies, hypertensive rats were used (SHR strain, spontaneously hypertensive rats). These rats present obesity, high blood pressure, dyslipidaemia (hypercholesterolemia and hypertriglyceridemia), diabetes, metabolic syndrome and other related health problems. Also, SHR rats were used to research the efficacy of the hydroxy-triglycerides for the prevention and treatment of dyslipidaemias. On the one hand, treatments with different oral doses and durations gave rise to reductions in the plasma levels of total cholesterol and its fractions in test animals (Tables 5 and 6). These reductions were marked and significant, returning the cholesterol in plasma values to those found in animals without metabolic/cardiovascular disorders. […] [table] [table]

Compound | Activity GBE1wt [1] [%] | Survival: age at which all the animals in the group died [2] [days] | IC50 ([3]; Homo sapiens, MRC5) [µM] | Chol, levels of total cholesterol in plasma [4] [mg/dL] | IC50 [3] [µM] | HDL in plasma ([4]; 14 days, 600 mg/kg, 12 h) [mmHgmg/dl] | LDL in plasma ([4]; 14 days, 600 mg/kg, 12 h) [mmHgmg/dl] | Total cholesterol in plasma ([4]; 14 days, 600 mg/kg, 12 h) [mmHgmg/dl]
CCCCCC(O)C(=O)OCC(COC(=O)C(O)CCCCC)OC(=O)C(O)CCCCC (centres unmarked) [TGM0, 1,2,3-tri(2′-hydroxyheptanoyl)glycerol] | 95 ± 12 | 30 | > 500 | 62.2 ± 3 |  |  |  | 
CCCCCC=CCC=CCC=CCC=CCCC(O)C(=O)OCC(COC(=O)C(O)CCC=CCC=CCC=CCC=CCCCCC)OC(=O)C(O)CCC=CCC=CCC=CCC=CCCCCC (centres unmarked) [TGM4, 1,2,3-tri(2′-hydroxy-eicosa-5′,8′,11′,14′-tetraenoyl)glycerol] | 31 ± 4 | 44 |  | 72.7 ± 2 | > 500 |  |  | 
CCCCCC=CCC=CCCCCCCC(O)C(=O)OCC(COC(=O)C(O)CCCCCCC=CCC=CCCCCC)OC(=O)C(O)CCCCCCC=CCC=CCCCCC (centres unmarked) [TGM2, 1,2,3-tri(2′-hydroxy-octadec-9′,12′-dienoyl)glycerol] | 72 ± 5 | 33 |  | 51.7 ± 2 | > 500 |  |  | 
CCCCCC=CCC=CCC=CCCCC(O)C(=O)OCC(COC(=O)C(O)CCCC=CCC=CCC=CCCCCC)OC(=O)C(O)CCCC=CCC=CCC=CCCCCC (centres unmarked) [TGM3G, 1,2,3-tri(2′-hydroxy-octadec-6′,9′,12′-trienoyl)glycerol] | 69 ± 7 | 31 |  | 65.1 ± 4 | > 500 |  |  | 
CCC=CCC=CCC=CCCCCCCC(O)C(=O)OCC(COC(=O)C(O)CCCCCCC=CCC=CCC=CCC)OC(=O)C(O)CCCCCCC=CCC=CCC=CCC (centres unmarked) [TGM3A, 1,2,3-tri(2′-hydroxy-octadec-9′,12′,15′-trienoyl)glycerol] | 88 ± 2 | 40 |  | 49.8 ± 2 | > 500 |  |  | 
CCC=CCC=CCC=CCC=CCC=CCC=CCC(O)C(=O)OCC(COC(=O)C(O)CC=CCC=CCC=CCC=CCC=CCC=CCC)OC(=O)C(O)CC=CCC=CCC=CCC=CCC=CCC=CCC (centres unmarked) [TGM6, 1,2,3-tri(2′-hydroxy-docosa-4′,7′,10′,13′,16′,19′-hexanoyl)glycerol] | 33 ± 3 | 39 |  | 48.9 ± 3 | > 500 |  |  | 
CCC=CCC=CCC=CCC=CCC=CCCC(O)C(=O)OCC(COC(=O)C(O)CCC=CCC=CCC=CCC=CCC=CCC)OC(=O)C(O)CCC=CCC=CCC=CCC=CCC=CCC (centres unmarked) [TGM5, 1,2,3-tri(2′-hydroxy-eicosa-5′,8′,11′,14′,17′-pentaenoyl)glycerol] | 24 ± 2 | 31 |  | 58.4 ± 3 | > 500 |  |  | 
CCCCCCCCC=CCCCCCCC(O)C(=O)OCC(COC(=O)C(O)CCCCCCC=CCCCCCCCC)OC(=O)C(O)CCCCCCC=CCCCCCCCC (centres unmarked) [TGM1, 1,2,3-tri(2′-hydroxy-octadec-9′-enoyl)glycerol] | 89 ± 10 | 45 |  | 55.5 ± 2 | > 500 | 33.44 ± 2.251 | 3.644 ± 0.3244 | 49.11 ± 3.084
